Data set [1] has as its target Potassium voltage-gated channel subfamily H member 2 (Homo sapiens, UniProt Q12809). As to the kind of experiment: Determination of a Possible Activity on hERG. For orientation: hERG is a cardiac potassium channel; its block is linked to QT prolongation.
Description: In order to establish whether the compounds of the present invention act on hERG, the following experiment was carried out.The in vitro effects of the compounds indicated in Table 5 on the hERG potassium channel current (a surrogate for Iκr, the rapidly activating, delayed rectifier cardiac potassium current) expressed in mammalian cells were evaluated at room temperature using the QPatch HT (Sophion Bioscience A/S, Denmark), an automatic parallel patch clamp system. Each compound indicated in Table 5 was evaluated at 0.1, 1, 3, 10 and 30 μM with each concentration tested in a minimum of two cells (n≥2). The duration of exposure to each compound concentration was 3 minutes.
Data set [2] addresses Receptor-type tyrosine-protein kinase FLT3 (Homo sapiens, UniProt P36888). As to the kind of experiment: FLT3 Kinase assay. On the procedure:
(§1) Selected compounds were also tested for their binding properties against FLT3 kinase mutants using suitable in vitro assays (performed according to standard assays at DiscoveRx Corporation). The compounds show strong binding to the main oncogenic mutants of the FLT3 kinase.

For data set [3], the target named is Receptor-type tyrosine-protein kinase FLT3 [D835H] (Homo sapiens, UniProt P36888, D835H). As to the kind of experiment: FLT3 Kinase assay. Here is the method:
as §1

The target in data set [4] is Receptor-type tyrosine-protein kinase FLT3 [D835Y] (Homo sapiens, UniProt P36888, D835Y). As to the kind of experiment: FLT3 Kinase assay. On the procedure: as §1

Chain of Potassium voltage-gated channel subfamily H member 2 (Q12809 whole entry): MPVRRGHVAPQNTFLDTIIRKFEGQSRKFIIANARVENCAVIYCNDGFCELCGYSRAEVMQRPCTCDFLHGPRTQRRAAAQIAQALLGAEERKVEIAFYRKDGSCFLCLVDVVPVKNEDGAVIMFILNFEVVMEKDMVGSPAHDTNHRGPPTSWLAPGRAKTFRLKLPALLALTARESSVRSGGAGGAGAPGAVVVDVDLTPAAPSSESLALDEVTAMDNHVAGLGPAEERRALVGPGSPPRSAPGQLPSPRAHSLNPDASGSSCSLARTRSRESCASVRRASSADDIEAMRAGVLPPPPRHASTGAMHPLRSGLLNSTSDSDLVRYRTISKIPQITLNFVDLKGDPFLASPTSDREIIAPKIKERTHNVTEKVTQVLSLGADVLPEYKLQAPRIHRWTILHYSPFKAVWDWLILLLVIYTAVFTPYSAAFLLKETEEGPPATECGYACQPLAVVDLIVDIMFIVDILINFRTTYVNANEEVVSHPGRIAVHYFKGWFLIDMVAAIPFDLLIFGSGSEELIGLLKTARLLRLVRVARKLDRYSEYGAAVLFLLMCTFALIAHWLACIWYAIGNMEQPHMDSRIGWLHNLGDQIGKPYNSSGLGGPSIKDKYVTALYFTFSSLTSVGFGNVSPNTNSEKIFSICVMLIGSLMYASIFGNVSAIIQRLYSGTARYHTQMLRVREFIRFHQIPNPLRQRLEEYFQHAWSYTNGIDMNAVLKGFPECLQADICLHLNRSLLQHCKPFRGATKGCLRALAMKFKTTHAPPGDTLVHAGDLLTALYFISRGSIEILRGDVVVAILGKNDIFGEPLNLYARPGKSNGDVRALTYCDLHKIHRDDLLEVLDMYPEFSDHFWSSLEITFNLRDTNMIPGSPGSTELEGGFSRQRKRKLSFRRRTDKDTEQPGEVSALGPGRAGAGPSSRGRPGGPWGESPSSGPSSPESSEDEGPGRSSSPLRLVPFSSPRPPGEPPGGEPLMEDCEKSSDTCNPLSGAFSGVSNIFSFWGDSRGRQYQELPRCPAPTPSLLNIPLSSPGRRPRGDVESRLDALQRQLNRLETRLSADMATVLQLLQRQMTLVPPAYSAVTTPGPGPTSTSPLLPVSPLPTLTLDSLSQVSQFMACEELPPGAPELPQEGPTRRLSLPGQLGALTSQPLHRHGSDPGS

With `CCn1c(N2CCNCC2)nc2c([N+](=O)[O-])c(Br)c(Br)cc21` [US10174013, Example 1A], the IC50 in data set [1] is 20400 nM.
With `CC(C)n1c(N2CCNCC2)nc2c([N+](=O)[O-])c(Br)c(Br)cc21` [US10174013, Example 2A], the values for the Kd in data set [2], in data set [3] and in data set [4] were 130 nM, 28 nM and 15 nM, respectively.

What is called IC50 is the concentration that inhibits the measured activity by half. What is called Kd is the concentration at which binding is half-saturated.

The values above are taken from BindingDB's records for patent US10174013 (Selvita S.A., 2019).
